According to patent publication US11000033B2, “Ketone or oxime compound, and herbicide” (NISSAN CHEMICAL CORPORATION, priority 2014, dated 2021):

Experiments:
Type in all cases: in vivo
[1] = test system: Veronica persica; test: Test Example 5: herbicidal effect by foliage application, plastic box (symbol R); details: 320 g/ha, 3 weeks after application
Method in brief: (§1)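 Seeds were sown in sterilized diluvial soil, covered with about 1.5 cm of soil and grown 14 days in a greenhouse at 25° C. to 30° C. An emulsifiable formulation diluted in water to a set rate was sprayed over foliage, and injury was scored 3 weeks later.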

[2] = test system: rapeseed; test: Test Example 4: effect on crop by soil treatment (symbol g); details: for g (rapeseed) effect on crop grade: application herbicide amount 320 g/ha; for g: rapeseed, effect grade on crop: 320 g/ha
Method in brief: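 Crop seeds, among them rice, wheat, beet and rapeseed, were sown in sterilized diluvial soil and covered with about 1.5 cm of soil. Boxes were kept in a greenhouse at 25° C. to 30° C. for plant growth.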

[3] = test system: Galium spurium; test: Test Example 5: herbicidal effect by foliage application, plastic box (symbol Q); details: 320 g/ha, 3 weeks after application
Method in brief: as §1

[4] = test system: Echinochloa oryzacola Vasing.; test: Test Example 1: herbicidal activity, application before weed generation in submerged conditions (symbol A); details: application herbicide amount 320 g/ha
Method in brief: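 Scores run 0 to 5 by herbicidal ratio, with 5 meaning 90% or more and 0 meaning 5% or lower, read 3 weeks after treatment. Compound was applied as a diluted emulsion to the water surface of submerged alluvial-soil pots on the day weed seeds were sown.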

[5] = test system: Abutilon theophrasti; test: Test Example 5: herbicidal effect by foliage application, plastic box (symbol M); details: 320 g/ha, 3 weeks after application
Method in brief: as §1

[6] = test system: rice plant; test: Test Example 5: effect on crop by foliage application, plastic box (symbol b); details: 320 g/ha, 3 weeks after application
Method in brief: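 Greenhouse test at 25° C. to 30° C. Seeds of crops and weeds were spot-sown in boxes of sterilized diluvial soil under roughly 1.5 cm soil cover, then grown for foliage treatment.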

[7] = test system: Avena fatua; test: Test Example 4: herbicidal effect by soil treatment (symbol I); details: for I (Avena fatua) herbicidal effect grade: application herbicide amount 320 g/ha; for I: Avena fatua, herbicidal effect grade: 320 g/ha
Method in brief: (§2)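 Seeds were sown in sterilized diluvial soil, covered with about 1.5 cm of soil, and the soil surface was sprayed with a water-diluted emulsion of the compound at a predetermined rate. Plants grew in a greenhouse at 25° C. to 30° C.; effects were scored visually 3 weeks after application.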

[8] = test system: Setaria viridis; test: Test Example 5: herbicidal effect by foliage application, plastic box (symbol G); details: 320 g/ha, 3 weeks after application
Method in brief: as §1

[9] = test system: Lolium multiflorum Lam.; test: Test Example 5: herbicidal effect by foliage application, plastic box (symbol K); details: 320 g/ha, 3 weeks after application
Method in brief: as §1

[10] = test system: Stellaria media; test: Test Example 5: herbicidal effect by foliage application, plastic box (symbol P); details: 320 g/ha, 3 weeks after application
Method in brief: as §1

[11] = test system: Amaranthus retroflexus; test: Test Example 5: herbicidal effect by foliage application, plastic box (symbol N); details: 320 g/ha, 3 weeks after application
Method in brief: as §1

[12] = test system: Alopecurus myosuroides; test: Test Example 4: herbicidal effect by soil treatment (symbol J); details: for J (Alopecurus myosuroides) herbicidal effect grade: application herbicide amount 320 g/ha; for J: Alopecurus myosuroides, herbicidal effect grade: 320 g/ha
Method in brief: as §2

[13] = test system: Veronica persica; test: Test Example 4: herbicidal effect by soil treatment (symbol R); details: for R (Veronica persica) herbicidal effect grade: application herbicide amount 320 g/ha; for R: Veronica persica, herbicidal effect grade: 320 g/ha
Method in brief: as §2

[14] = test system: Echinochloa crus-galli var. crus-galli; test: Test Example 4: herbicidal effect by soil treatment (symbol H); details: for H (Echinochloa crus-galli var. crus-galli) herbicidal effect grade: application herbicide amount 320 g/ha; for H: Echinochloa crus-galli var. crus-galli, herbicidal effect grade: 320 g/ha
Method in brief: as §2

[15] = test system: Echinochloa oryzacola Vasing.; test: Test Example 2: herbicidal activity, application during weed generation in submerged conditions (symbol A); details: Table 23; application herbicide amount 320 g/ha; grade 0-5 by criteria of Test Example 1
Method in brief: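 Scoring of herbicidal effect took place 3 weeks after treatment, using the criteria of the earlier test. Treatment was water-surface application of diluted emulsifiable compound at a set dose. Plants were at one- to two-leaf stage in submerged alluvial soil (4 cm depth), greenhouse 25-30° C.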

[16] = test system: corn; test: Test Example 4: effect on crop by soil treatment (symbol c); details: for c (corn) effect on crop grade: application herbicide amount 320 g/ha; for c: corn, effect grade on crop: 320 g/ha
Method in brief: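 Seeds were sown in spots on sterilized diluvial soil in a plastic box and covered with about 1.5 cm of soil. Plants were then grown in a greenhouse at 25° C. to 30° C.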

[17] = test system: Lolium multiflorum Lam.; test: Test Example 4: herbicidal effect by soil treatment (symbol K); details: for K (Lolium multiflorum Lam.) herbicidal effect grade: application herbicide amount 320 g/ha; for K: Lolium multiflorum Lam., herbicidal effect grade: 320 g/ha
Method in brief: as §2

## CON=C(C)CC1CC(OC(=O)COc2ccccc2[N+](=O)[O-])=C(c2c(C)cc(C)cc2C)C1=O (centres unmarked) [1-071]
[1]
  R: Veronica persica, herbicidal effect grade: 1 (Herbicidal ratio of 5% or higher and lower than 20%)
[2]
  g (rapeseed) effect on crop grade: 4 (Herbicidal ratio of 70% or higher and lower than 90%)
[3]
  Q: Galium spurium, herbicidal effect grade: 2 (Herbicidal ratio of 20% or higher and lower than 40%)
[4]
  Herbicidal effect grade, A: Echinochloa oryzacola Vasing.: 5 (Herbicidal ratio of 90% or more (almost completely withered))
[5]
  M: Abutilon theophrasti, herbicidal effect grade: 4 (Herbicidal ratio of 70% or higher and lower than 90%)
[6]
  b: directly sowed rice plant, effect on crop grade: 5 (Herbicidal ratio of 90% or more (almost completely withered))
[7]
  I (Avena fatua) herbicidal effect grade: 4 (Herbicidal ratio of 70% or higher and lower than 90%)
[8]
  G: Setaria viridis, herbicidal effect grade: 5 (Herbicidal ratio of 90% or more (almost completely withered))
[9]
  K: Lolium multiflorum Lam., herbicidal effect grade: 3 (Herbicidal ratio of 40% or higher and lower than 70%)
[10]
  P: Stellaria media, herbicidal effect grade: 0 (Herbicidal ratio of 5% or lower (almost no effect))
[11]
  N: Amaranthus retroflexus, herbicidal effect grade: 0 (Herbicidal ratio of 5% or lower (almost no effect))
[12]
  J (Alopecurus myosuroides) herbicidal effect grade: 5 (Herbicidal ratio of 90% or more (almost completely withered))
[13]
  R (Veronica persica) herbicidal effect grade: 0 (Herbicidal ratio of 5% or lower (almost no effect))
[14]
  H (Echinochloa crus-galli var. crus-galli) herbicidal effect grade: 5 (Herbicidal ratio of 90% or more (almost completely withered))
[15]
  Herbicidal effect grade, A: Echinochloa oryzacola Vasing.: 5 (Herbicidal ratio of 90% or more (almost completely withered))
[16]
  c (corn) effect on crop grade: 4 (Herbicidal ratio of 70% or higher and lower than 90%)
[17]
  K (Lolium multiflorum Lam.) herbicidal effect grade: 5 (Herbicidal ratio of 90% or more (almost completely withered))

## CON=C(C)CC1CC(OC(=O)C2=C(Br)CCC2)=C(c2c(C)cc(C)cc2C)C1=O (centres unmarked) [1-089]
[1]
  R: Veronica persica, herbicidal effect (criteria 0-5): 3 (Herbicidal ratio of 40% or higher and lower than 70%)
[2]
  g: rapeseed, effect grade on crop: 4 (Herbicidal ratio of 70% or higher and lower than 90%)
[3]
  Q: Galium spurium, herbicidal effect (criteria 0-5): 0 (Herbicidal ratio of 5% or lower (almost no effect))
[4]
  Herbicidal effect grade, A: Echinochloa oryzacola Vasing.: 5 (Herbicidal ratio of 90% or more (almost completely withered))
[5]
  M: Abutilon theophrasti, herbicidal effect (criteria 0-5): 4 (Herbicidal ratio of 70% or higher and lower than 90%)
[6]
  b: directly sowed rice plant, effect on crop (criteria 0-5): 5 (Herbicidal ratio of 90% or more (almost completely withered))
[7]
  I: Avena fatua, herbicidal effect grade: 2 (Herbicidal ratio of 20% or higher and lower than 40%)
[8]
  G: Setaria viridis, herbicidal effect (criteria 0-5): 5 (Herbicidal ratio of 90% or more (almost completely withered))
[9]
  K: Lolium multiflorum Lam., herbicidal effect (criteria 0-5): 5 (Herbicidal ratio of 90% or more (almost completely withered))
[10]
  P: Stellaria media, herbicidal effect (criteria 0-5): 0 (Herbicidal ratio of 5% or lower (almost no effect))
[11]
  N: Amaranthus retroflexus, herbicidal effect (criteria 0-5): 2 (Herbicidal ratio of 20% or higher and lower than 40%)
[12]
  J: Alopecurus myosuroides, herbicidal effect grade: 5 (Herbicidal ratio of 90% or more (almost completely withered))
[13]
  R: Veronica persica, herbicidal effect grade: 0 (Herbicidal ratio of 5% or lower (almost no effect))
[14]
  H: Echinochloa crus-galli var. crus-galli, herbicidal effect grade: 5 (Herbicidal ratio of 90% or more (almost completely withered))
[15]
  Herbicidal effect grade, A: Echinochloa oryzacola Vasing.: 5 (Herbicidal ratio of 90% or more (almost completely withered))
[16]
  c: corn, effect grade on crop: 5 (Herbicidal ratio of 90% or more (almost completely withered))
[17]
  K: Lolium multiflorum Lam., herbicidal effect grade: 5 (Herbicidal ratio of 90% or more (almost completely withered))

## CON=C(CC1CC(O)=C(c2c(C)cc(C)cc2C)C1=O)C1CCCC1 (centres unmarked) [1-078]
[1]
  R: Veronica persica, herbicidal effect (criteria 0-5): 0 (Herbicidal ratio of 5% or lower (almost no effect))
[2]
  g: rapeseed, effect grade on crop: 1 (Herbicidal ratio of 5% or higher and lower than 20%)
[3]
  Q: Galium spurium, herbicidal effect (criteria 0-5): 0 (Herbicidal ratio of 5% or lower (almost no effect))
[4]
  Herbicidal effect grade, A: Echinochloa oryzacola Vasing.: 5 (Herbicidal ratio of 90% or more (almost completely withered))
[5]
  M: Abutilon theophrasti, herbicidal effect (criteria 0-5): 0 (Herbicidal ratio of 5% or lower (almost no effect))
[6]
  b: directly sowed rice plant, effect on crop (criteria 0-5): 5 (Herbicidal ratio of 90% or more (almost completely withered))
[7]
  I: Avena fatua, herbicidal effect grade: 0 (Herbicidal ratio of 5% or lower (almost no effect))
[8]
  G: Setaria viridis, herbicidal effect (criteria 0-5): 5 (Herbicidal ratio of 90% or more (almost completely withered))
[9]
  K: Lolium multiflorum Lam., herbicidal effect (criteria 0-5): 5 (Herbicidal ratio of 90% or more (almost completely withered))
[10]
  P: Stellaria media, herbicidal effect (criteria 0-5): 0 (Herbicidal ratio of 5% or lower (almost no effect))
[11]
  N: Amaranthus retroflexus, herbicidal effect (criteria 0-5): 0 (Herbicidal ratio of 5% or lower (almost no effect))
[12]
  J: Alopecurus myosuroides, herbicidal effect grade: 3 (Herbicidal ratio of 40% or higher and lower than 70%)
[13]
  R: Veronica persica, herbicidal effect grade: 0 (Herbicidal ratio of 5% or lower (almost no effect))
[14]
  H: Echinochloa crus-galli var. crus-galli, herbicidal effect grade: 2 (Herbicidal ratio of 20% or higher and lower than 40%)
[15]
  Herbicidal effect grade, A: Echinochloa oryzacola Vasing.: 4 (Herbicidal ratio of 70% or higher and lower than 90%)
[16]
  c: corn, effect grade on crop: 4 (Herbicidal ratio of 70% or higher and lower than 90%)
[17]
  K: Lolium multiflorum Lam., herbicidal effect grade: 5 (Herbicidal ratio of 90% or more (almost completely withered))

## CCC(CC1CC(O)=C(c2c(C)cc(C)cc2C)C1=O)=NOC (centres unmarked) [1-038]
[1]
  R: Veronica persica, herbicidal effect grade: 1 (Herbicidal ratio of 5% or higher and lower than 20%)
[2]
  g (rapeseed) effect on crop grade: 4 (Herbicidal ratio of 70% or higher and lower than 90%)
[3]
  Q: Galium spurium, herbicidal effect grade: 0 (Herbicidal ratio of 5% or lower (almost no effect))
[4]
  Herbicidal effect grade, A: Echinochloa oryzacola Vasing.: 5 (Herbicidal ratio of 90% or more (almost completely withered))
[5]
  M: Abutilon theophrasti, herbicidal effect grade: 4 (Herbicidal ratio of 70% or higher and lower than 90%)
[6]
  b: directly sowed rice plant, effect on crop grade: 5 (Herbicidal ratio of 90% or more (almost completely withered))
[7]
  I (Avena fatua) herbicidal effect grade: 0 (Herbicidal ratio of 5% or lower (almost no effect))
[8]
  G: Setaria viridis, herbicidal effect grade: 5 (Herbicidal ratio of 90% or more (almost completely withered))
[9]
  K: Lolium multiflorum Lam., herbicidal effect grade: 5 (Herbicidal ratio of 90% or more (almost completely withered))
[10]
  P: Stellaria media, herbicidal effect grade: 0 (Herbicidal ratio of 5% or lower (almost no effect))
[11]
  N: Amaranthus retroflexus, herbicidal effect grade: 2 (Herbicidal ratio of 20% or higher and lower than 40%)
[12]
  J (Alopecurus myosuroides) herbicidal effect grade: 5 (Herbicidal ratio of 90% or more (almost completely withered))
[13]
  R (Veronica persica) herbicidal effect grade: 0 (Herbicidal ratio of 5% or lower (almost no effect))
[14]
  H (Echinochloa crus-galli var. crus-galli) herbicidal effect grade: 5 (Herbicidal ratio of 90% or more (almost completely withered))
[15]
  Herbicidal effect grade, A: Echinochloa oryzacola Vasing.: 5 (Herbicidal ratio of 90% or more (almost completely withered))
[16]
  c (corn) effect on crop grade: 3 (Herbicidal ratio of 40% or higher and lower than 70%)
[17]
  K (Lolium multiflorum Lam.) herbicidal effect grade: 5 (Herbicidal ratio of 90% or more (almost completely withered))
